From US20260334439A1, “BCAT2 INHIBITORS” (Agios Pharmaceuticals, Inc., priority 2023, published 2026)
pIC50: −log10 of the molar value.

Key:
BCAT2 [1] = molecular target: T1, BCAT2 (Homo sapiens, UniProt O15382); assay: BCAT2 in vitro enzyme inhibition assay (hBCAT2, glutamate dehydrogenase/diaphorase/resazurin coupled fluorescence read); assay type: biochemical; details: hBCAT2, 1 h preincubation at 25° C., one hour reaction; average where tested multiple times
T1 sequence (O15382 28-392): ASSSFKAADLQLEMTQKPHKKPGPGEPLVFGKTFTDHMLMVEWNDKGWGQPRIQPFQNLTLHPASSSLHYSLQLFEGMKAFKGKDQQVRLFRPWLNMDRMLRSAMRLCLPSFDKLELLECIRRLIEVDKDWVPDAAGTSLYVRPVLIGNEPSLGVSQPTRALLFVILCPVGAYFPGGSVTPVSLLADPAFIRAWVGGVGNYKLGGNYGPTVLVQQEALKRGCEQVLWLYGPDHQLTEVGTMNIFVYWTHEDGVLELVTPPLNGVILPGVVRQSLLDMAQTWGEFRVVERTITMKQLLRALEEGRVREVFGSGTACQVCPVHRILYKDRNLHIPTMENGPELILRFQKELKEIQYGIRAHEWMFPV
How it was run: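 hBCAT2 (0.33 μg/mL in mix) preincubated 1 h at 25 °C with compound (top 100 μM, 3-fold, 10 points) in Tris pH 8.0/NaCl/BSA; substrate mix added (L-leucine, α-ketoglutarate, GDH, NAD, diaphorase, resazurin), quenched with SDS after 1 h, fluorescence Ex 540/Em 590; duplicates, repeat tests averaged.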

BCAT2 [2] = molecular target: T1, BCAT2; assay: BCAT2 cell inhibition using engineered A549 cells (MUT KO, BCAT1 KO; 13C6-KMV formation by LC-MS/MS); assay type: cell-based; parameters: expressed endogenous BCAT2; endogenous in cells; host or cells: A549 cells, MUT knockout and BCAT1 knockout
How it was run: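 Medium 13C6-KMV formation is read by LC-MS/MS after PFBHA derivatization with d8-KMV internal standard. Cells are CRISPR MUT/BCAT1 double-knockout A549 expressing endogenous BCAT2, given compound 15 min before labelled isoleucine (800 uM, added 1:1) for 24 h. CTG viability run in parallel; replicates averaged.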

## CCNc1ccc(Cl)cc1C(=O)N[C@H]1CCC[C@@H](n2c(-c3ccccc3F)nc3cnc(-c4nc[nH]n4)cc32)C1 [Example 32, 5-chloro-2-(ethylamino)-N-((1S,3R)-3-(2-(2-fluorophenyl)-6-(1H-1,2,4-triazol-3-yl)-1H-imidazo[4,5-c]pyridin-1-yl)cyclohexyl)benzamide]
BCAT2 [1]
  pIC50: 6.30 to 7.00
BCAT2 [2]; read-out: BCAT2 Cell Inhibition (IC50), engineered A549 cells, 24 hours, 13C6-KMV in media, average where tested multiple times
  pIC50: < 6.00

## O=C(N[C@@H]1C[C@@H](OC(F)F)C[C@H](n2c(-c3ccccc3F)nc3cnc(-c4ncn[nH]4)cc32)C1)c1cc(F)ccn1 (relative stereo) [compound 128]
BCAT2 [1]
  pIC50: > 7.00
BCAT2 [2]; engineered A549 cells, 24 hours, 13C6-KMV in media, average where tested multiple times, read-out: BCAT2 Cell Inhibition (IC50)
  pIC50: 6.30 to 7.00

## O=C(N[C@H]1CCC[C@@H](n2c(-c3ccccc3F)nc3cnc(-c4nc[nH]n4)cc32)C1)c1cc(Cl)ccc1OCCCO [Example 82, 5-chloro-N-((1S,3R)-3-(2-(2-fluorophenyl)-6-(1H-1,2,4-triazol-3-yl)-1H-imidazo[4,5-c]pyridin-1-yl)cyclohexyl)-2-(3-hydroxypropoxy)benzamide]
BCAT2 [1]
  pIC50: > 7.00
BCAT2 [2]
  pIC50: > 7.00

## CN1C[C@H](NC(=O)c2cc(Cl)ccn2)C[C@H](n2c(-c3ccccc3F)nc3cnc(-c4nc[nH]n4)cc32)C1 [Example 130, 4-chloro-N-((3R,5S)-5-(2-(2-fluorophenyl)-6-(1H-1,2,4-triazol-3-yl)-1H-imidazo[4,5-c]pyridin-1-yl)-1-methylpiperidin-3-yl)picolinamide]
BCAT2 [1]
  pIC50: > 7.00
BCAT2 [2]
  pIC50: > 7.00

## O=C(N[C@H]1CCC[C@@H](n2c(-c3ccccc3F)nc3cnc(-c4nc[nH]n4)cc32)C1)c1cc(Cl)ccc1OCCN1CCCC1 [Example 35, 5-chloro-N-((1S,3R)-3-(2-(2-fluorophenyl)-6-(1H-1,2,4-triazol-3-yl)-1H-imidazo[4,5-c]pyridin-1-yl)cyclohexyl)-2-(2-(pyrrolidin-1-yl)ethoxy)benzamide]
BCAT2 [1]
  pIC50: 6.30 to 7.00
BCAT2 [2]
  pIC50: 6.00 to 6.30

## O=C1c2c(ccc(F)c2F)CN1[C@H]1CCC[C@@H](n2c(-c3ccccc3F)nc3cnc(-c4nc[nH]n4)cc32)C1 [Example 178, 6,7-difluoro-2-((1S,3R)-3-(2-(2-fluorophenyl)-6-(1H-1,2,4-triazol-3-yl)-1H-imidazo[4,5-c]pyridin-1-yl)cyclohexyl)isoindolin-1-one]
BCAT2 [1]
  pIC50: > 7.00
BCAT2 [2]
  pIC50: > 7.00

## CN(C)Cc1ccc(Cl)cc1C(=O)N[C@H]1CCC[C@@H](n2c(-c3ccccc3F)nc3cnc(-c4nc[nH]n4)cc32)C1 [Example 37, 5-chloro-2-((dimethylamino)methyl)-N-((1S,3R)-3-(2-(2-fluorophenyl)-6-(1H-1,2,4-triazol-3-yl)-1H-imidazo[4,5-c]pyridin-1-yl)cyclohexyl)benzamide]
BCAT2 [1]
  pIC50: > 7.00
BCAT2 [2]
  pIC50: 6.00 to 6.30

## CO[C@@H]1C[C@H](N2Cc3ccc(F)cc3C2=O)C[C@H](n2c(-c3ccccc3F)nc3cnc(-c4nc[nH]n4)cc32)C1 [Example 195, 6-fluoro-2-((1R,3S,5S)-3-(2-(2-fluorophenyl)-6-(1H-1,2,4-triazol-3-yl)-1H-imidazo[4,5-c]pyridin-1-yl)-5-methoxycyclohexyl)isoindolin-1-one]
BCAT2 [1]
  pIC50: > 7.00
BCAT2 [2]
  pIC50: > 7.00

## O=C(N[C@H]1CCC[C@@H](n2c(-c3ccccc3F)nc3cnc(-c4nc[nH]n4)cc32)[C@@H]1O)c1cc(F)ccc1F [Example 120, 2,5-difluoro-N-((1S,2R,3R)-3-(2-(2-fluorophenyl)-6-(1H-1,2,4-triazol-3-yl)-1H-imidazo[4,5-c]pyridin-1-yl)-2-hydroxycyclohexyl)benzamide]
BCAT2 [1]
  pIC50: > 7.00
BCAT2 [2]
  pIC50: > 7.00

## CO[C@@H]1C[C@H](NC(=O)c2cc(F)ccn2)C[C@H](n2c(-c3ccccc3F)nc3cnc(-c4nc[nH]n4)cc32)C1 [Example 114, 4-fluoro-N-((1R,3S,5R)-3-(2-(2-fluorophenyl)-6-(1H-1,2,4-triazol-3-yl)-1H-imidazo[4,5-c]pyridin-1-yl)-5-methoxycyclohexyl)picolinamide]
BCAT2 [1]
  pIC50: > 7.00
BCAT2 [2]
  pIC50: > 7.00

## O=C(N[C@H]1CCC[C@@H](n2c(-c3ccccc3F)nc3cnc(-c4nc[nH]n4)cc32)C1)c1ncccc1F [Example 11, 3-fluoro-N-((1S,3R)-3-(2-(2-fluorophenyl)-6-(1H-1,2,4-triazol-3-yl)-1H-imidazo[4,5-c]pyridin-1-yl)cyclohexyl)picolinamide]
BCAT2 [1]
  pIC50: > 7.00
BCAT2 [2]
  pIC50: 6.00 to 6.30

## COCCOc1ccc(Cl)cc1C(=O)N[C@H]1CCC[C@@H](n2c(-c3ccccc3F)nc3cnc(-n4nccn4)cc32)C1 [Example 72, 5-chloro-N-((1S,3R)-3-(2-(2-fluorophenyl)-6-(2H-1,2,3-triazol-2-yl)-1H-imidazo[4,5-c]pyridin-1-yl)cyclohexyl)-2-(2-methoxyethoxy)benzamide]
BCAT2 [1]
  pIC50: > 7.00
BCAT2 [2]
  pIC50: > 7.00

## O=C(N[C@H]1CCC[C@@H](n2c(-c3ccccc3F)nc3cnc(-c4nc[nH]n4)cc32)C1)c1cc(Cl)ccc1OC1CC1 [Example 29, 5-chloro-2-cyclopropoxy-N-((1S,3R)-3-(2-(2-fluorophenyl)-6-(1H-1,2,4-triazol-3-yl)-1H-imidazo[4,5-c]pyridin-1-yl)cyclohexyl)benzamide]
BCAT2 [1]
  pIC50: > 7.00
BCAT2 [2]
  pIC50: > 7.00

## CO[C@H]1C[C@H](N2Cc3ccc(F)cc3C2=O)C[C@H](n2c(-c3c(O)cccc3F)nc3cnc(-c4nc[nH]n4)cc32)C1 [Example 192, 6-fluoro-2-((1R,3S,5R)-3-(2-(2-fluoro-6-hydroxyphenyl)-6-(1H-1,2,4-triazol-3-yl)-1H-imidazo[4,5-c]pyridin-1-yl)-5-methoxycyclohexyl)isoindolin-1-one]
BCAT2 [1]
  pIC50: > 7.00
BCAT2 [2]
  pIC50: 6.30 to 7.00

## CC(C)Cc1nc2cnc(-c3nc[nH]n3)cc2n1[C@@H]1CCC[C@H](NC(=O)c2cc(Cl)ccc2OCCO)C1 [Example 78, 5-chloro-2-(2-hydroxyethoxy)-N-((1S,3R)-3-(2-isobutyl-6-(1H-1,2,4-triazol-3-yl)-1H-imidazo[4,5-c]pyridin-1-yl)cyclohexyl)benzamide]
BCAT2 [1]
  pIC50: > 7.00
BCAT2 [2]
  pIC50: 6.30 to 7.00

## O=C(N[C@H]1CCC[C@@H](n2c(-c3ccccc3F)nc3cnc(-c4nc[nH]n4)cc32)C1)c1ccccc1Cl [Example 3, 2-chloro-N-((1S,3R)-3-(2-(2-fluorophenyl)-6-(1H-1,2,4-triazol-3-yl)-1H-imidazo[4,5-c]pyridin-1-yl)cyclohexyl)benzamide]
BCAT2 [1]
  pIC50: > 7.00
BCAT2 [2]
  pIC50: 6.30 to 7.00

## N#Cc1ccccc1-c1nc2cnc(-c3nc[nH]n3)cc2n1[C@@H]1CCC[C@H](NC(=O)c2cc(Cl)ccn2)C1 [Example 45, 4-chloro-N-((1S,3R)-3-(2-(2-cyanophenyl)-6-(1H-1,2,4-triazol-3-yl)-1H-imidazo[4,5-c]pyridin-1-yl)cyclohexyl)picolinamide]
BCAT2 [1]
  pIC50: > 7.00
BCAT2 [2]
  pIC50: > 7.00
